Experimental data published in the supplement of paper PMC10307832.

Experiments:
Assay in all cases: relative viability (nuclei count vs DMSO), 5 days (fraction); higher = more cells survive
[1] = compound: C=CC(=O)Nc1cc(-n2c(=O)ccc3cnc4ccc(-c5ccc(NS(C)(=O)=O)cc5)cc4c32)ccc1C [BMX-IN-1] + CS(=O)(=O)N1CCN(Cc2cc3nc(-c4cccc5[nH]ncc45)nc(N4CCOCC4)c3s2)CC1 [Pictilisib] (partner 1 µM)
Procedure, shortened: (§1)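 Lung cancer cell lines, seeded in 1536-well plates, were treated the following day by pin tool with a single drug or with five library-drug doses (not always all listed) in √10 steps on top of a fixed anchor-drug dose. Cells were fixed and nuclei stained in one step after 5 days, and nuclei were counted. Relative viability is the nuclei count for treated wells divided by that for vehicle wells, reported as medians of duplicate plates.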

[2] = compound: C=CCc1cccc(/C=N/NC(=O)CN2CCN(Cc3ccccc3)CC2)c1O [PAC-1] + Cc1cc(Nc2cc(N3CCN(C)CC3)nc(Sc3ccc(NC(=O)C4CC4)cc3)n2)n[nH]1 [Tozasertib] (partner 0.1 µM)
Procedure, shortened: as §1

[3] = compound: C=CC(=O)N1CCC[C@@H](n2nc(-c3ccc(Oc4ccccc4)cc3)c3c(N)ncnc32)C1 [Ibrutinib] + C[C@]1(O)C[C@@H](c2nc(-c3ccc4ccc(-c5ccccc5)nc4c3)c3c(N)nccn32)C1 [Linsitinib] (partner 1 µM)
Procedure, shortened: as §1

[4] = compound: C=CC(=O)N1CCC[C@@H](n2nc(-c3ccc(Oc4ccccc4)cc3)c3c(N)ncnc32)C1 [Ibrutinib] + COc1cc2c(Oc3ccc(NC(=O)C4(C(=O)Nc5ccc(F)cc5)CC4)cc3F)ccnc2cc1OCCCN1CCOCC1 [Foretinib] (partner 0.25 µM)
Procedure, shortened: as §1

Cell Line | relative viability ([1]; first compound 0.02 µM) | relative viability ([1]; first compound 0.2 µM) | relative viability ([1]; first compound 0.6325 µM) | relative viability ([1]; first compound 2 µM) | relative viability ([2]; first compound 0.02 µM) | relative viability ([2]; first compound 0.06325 µM) | relative viability ([2]; first compound 0.2 µM) | relative viability ([2]; first compound 2 µM) | relative viability ([3]; first compound 0.005 µM) | relative viability ([3]; first compound 0.01581 µM) | relative viability ([3]; first compound 0.05 µM) | relative viability ([3]; first compound 0.1581 µM) | relative viability ([3]; first compound 0.5 µM) | relative viability ([4]; first compound 0.01581 µM) | relative viability ([4]; first compound 0.05 µM) | relative viability ([4]; first compound 0.1581 µM) | relative viability ([4]; first compound 0.5 µM) | relative viability ([4]; first compound 0.005 µM)
NCI-H596 | 0.382 | 0.379 | 0.405 | 0.343 | 0.903 | 0.885 | 0.857 | 1.01 | 1.13 | 0.946 | 0.99 | 0.996 | 0.841 | 0.808 | 0.803 | 0.793 | 0.567 | 
NCI-H322M | 0.558 | 0.505 | 0.532 | 0.583 | 0.496 | 0.537 | 0.467 | 0.477 | 0.782 | 0.813 | 0.784 | 0.82 | 0.516 | 0.864 | 0.899 | 0.989 | 0.642 | 0.872
H3255 | 0.437 | 0.461 | 0.592 | 0.488 | 0.66 | 0.656 | 0.606 | 0.638 | 0.925 | 0.772 | 0.685 | 1.06 | 0.227 | 0.986 | 0.711 | 0.993 | 0.53 | 0.66
COR-L23 | 1.1 | 1.3 | 0.76 | 0.855 | 0.203 | 0.304 | 0.192 | 0.214 | 1.16 | 0.867 | 0.973 | 0.986 |  | 0.886 | 1.04 | 0.926 | 1 | 1.08
NCI-H2126 | 0.473 | 0.481 | 0.568 | 0.51 | 0.919 | 0.829 | 0.82 | 0.821 |  | 0.66 | 0.705 | 0.732 | 0.539 | 1.03 | 1.24 | 1.25 | 1.02 | 
NCI-H1993 | 0.836 | 0.95 |  | 0.821 | 0.635 | 0.541 | 0.469 | 0.548 | 0.738 | 0.698 | 0.694 |  | 0.647 | 0.72 | 0.759 | 0.783 | 0.62 | 0.74
NCI-H1915 | 0.953 | 0.898 | 1.14 | 1.04 | 0.421 | 0.436 | 0.411 | 0.428 |  | 1.03 | 1.12 | 1.13 | 1.1 | 1.07 | 1.11 | 1.15 | 1.09 | 1.12
NCI-H727 | 0.439 | 0.416 | 0.403 | 0.337 | 0.679 | 0.585 | 0.589 | 0.602 | 0.285 | 0.288 | 0.319 | 0.203 | 0.31 | 0.785 | 0.914 |  | 0.695 | 0.911
NCI-H1734 | 0.529 | 0.541 | 0.488 | 0.432 | 0.199 | 0.256 | 0.23 | 0.267 | 0.801 | 0.887 | 0.885 | 0.885 | 0.745 | 0.822 | 0.965 | 0.895 | 0.718 | 0.827
